# Results reported in patent US12403132B2, “Methods of treating bone marrow failure syndromes and compositions for use in the same” (The Board of Trustees of the Leland Stanford Junior …, priority 2020, dated 2025).
# System: NLK
# Experiment: NLK expression in differentiating human progenitors (qRT-PCR, Western blot)
# Assay type: cell-based
# Parameters: reduction of NLK protein expression / NLK expression, % of control: concentration or dose not given beside the values
# Details: for NLK expression, % of control: miRNAs or drugs, single and combined; for reduction of NLK protein expression: metformin
# Procedure: FIG. 10. Metformin improves erythropoiesis through suppression of NLK expression. (Panel A) Control (shLuc—grey columns) or RPS19-insufficient (shRPS19-—black columns) progenitors were differentiated in erythroid media alone, vehicle or vehicle containing 50 mM metformin or 5 uM SD208 for 5 days. 5000 cells per treatment were lysed and immunopurified NLK was subjected to in vitro kinase assay to determine phosphorylation potential against 3 recognized NLK substrates; NLK itself (upper), c-Myb (middle) or raptor (bottom). (Panel B) Simultaneously, qRT-PCR was performed to examine NLK (upper) and RPS19 (lower) mRNA expression. (Panel C) Active NLK was purified from activated Kp53A1 cells and subjected to in vitro kinase assay in the presence of 0, 50 nM, 50 μM, or 50 mM metformin or SD208. The phosphorylation of NLK (upper), c-Myb (middle) and raptor (lower) was determined after 30 mins. (Panel D) CD34+ progenitors were transduced with a combination of either shRNA against luciferase (shLuc—grey columns) or RPS19 (shRPS19—black columns) and siRNA against a non-targeting sequence (NT) or NLK (siNLK). After 14 days differentiation in the presence or absence of metformin, cells were counted and the percentage of cells with surface expression of CD235 and CD11b were determined by flow cytometry, to yield the number of CD235+ erythroid (upper) and CD11b+ myeloid (lower) cells. The total number of cells is expressed as a percentage of the number of each cell type in the control (untreated/shLuc/NT). […] Statistics: two-tailed Student's t test, significant *P<0.05
# RNA was extracted by using total RNA mini kit (Bio-Rad). RNA was transcribed into cDNA by using the iScript cDNA Synthesis Kit (Bio-Rad). The quantitative RT-PCR (qRT-PCR) reaction was run with iQ SYBR Green MasterMix (Bio-Rad) using the CFX384 Touch Real-Time PCR Detection System (Bio-Rad). 7SL small cytoplasmic RNA14 was used as an internal control. miRNA was quantified using TaqMan® Small RNA Assays (Applied Biosystems) as per manufacturer's directions and normalized to snoRNA. Fold change of mRNA and miRNA was calculated by using the comparative Ct method.
# Antibodies against RPS19 (#AB40833; Abcam; 1:200 dilution), NLK (#AB97642; Abcam; 1:1000 dilution) c-Myb (#12319; Cell Signaling; 1;1000 dilution), raptor (#AB26264; Abcam 1;1000 dilution), phosphor-Serine (#525280; Calbiochem; 1:1000 dilution), S6K (#9202; Cell Signaling; 1:500 dilution), and 4E-BP1 (#9452; Cell Signaling; 1:500 dilution), and GAPDH (#MAB374; Millipore; 1:10000) were used according to manufacturer's instructions. The target proteins were analyzed by using SuperSignal® West Pico Chemiluminescent Substrate for horseradish peroxidase (Thermo Scientific). Densitometry was performed using Image J software (http://rsb.info.nih.gov/ij/). When indicated, proteins were co-immunoprecipitated prior to immunoblotting. Cell lysates were normalized for protein before preclearing with Protein A/G Agarose (Upstate) for 30 min, before incubating with indicated antibody overnight. Immune complexes were precipitated with Protein A/G Agarose and separated by SDS-PAGE, before being subjected to immunoblotting.
# NLK kinase activity was performed as published (5). For Western blotting, antibodies against NLK (#AB97642; Abcam; 1:1000 dilution) and GAPDH (#MAB374; Millipore; 1:10000) were used according to manufacturer's instructions.
# MessengerRNA was quantified as described (5). MicroRNA was quantified using TaqMan® Small RNA Assays (Applied Biosystems) as per manufacturer's directions and normalized to snoRNA.
SMILES,influence on NLK expression (5 uM SD208),"reduction of NLK mRNA expression (RPS19-insufficiency, 50 mM) [%]","reduction of NLK mRNA expression (control, 50 mM) [%]","reduction of NLK protein (differentiating HSPCs, 50 mM) [%]","NLK expression, % of control [%]",NLK expression (RPS19-insufficient and control cells),reduction of NLK protein expression (RPS19-insufficient cultures) [%],reduction of NLK protein expression (control cultures) [%]
Fc1ccc(Cl)cc1-c1nc(Nc2ccncc2)c2nccnc2n1 [SD208],did not significantly influence,,,,,,,
CC(C)=CCC[C@](C)(O[C@@H]1O[C@H](CO[C@@H]2O[C@H](CO)[C@@H](O)[C@H](O)[C@H]2O)[C@@H](O)[C@H](O)[C@H]1O)[C@H]1CC[C@]2(C)[C@@H]1[C@H](O)C[C@@H]1[C@@]3(C)CC[C@H](O[C@@H]4O[C@H](CO)[C@@H](O)[C@H](O)[C@H]4O[C@@H]4O[C@H](CO)[C@@H](O)[C@H](O)[C@H]4O)C(C)(C)[C@@H]3CC[C@]12C [ginsenoside Rb1],,43.2,43.8,46.4,65.4,,,
CN(C)C(=N)N=C(N)N [metformin],,,,,40.6,similarly suppressed,65.4,62.6
